For 18 compounds, IC50 results are on record in US7109332B2, “2,4-dioxo-3-quinazolinylaryl sulfonylureas” (Portola Pharmaceuticals, Inc., priority 2003, dated 2006).

In this test the test system is ADP-induced human platelet aggregation. The test is described as follows: Inhibition of ADP-mediated platelet aggregation in vitro (PRP assay). It is filed as cell-based. To be noted: 2 μM ADP, 96-well microtiter assay. How it is done: I. Inhibition of ADP-Mediated Platelet Aggregation In Vitro
The effect of testing the compound according to the invention on ADP-induced human platelet aggregation is preferably assessed in 96-well microtiter assay (see generally the procedures in Jantzen, H. M. et al. (1999) Thromb. Hemost. 81:111–117). Human venous blood is collected from healthy, drug-free volunteers into ACD (85 mM sodium citrate, 111 mM glucose, 71.4 mM citric acid) containing PGI2 (1.25 ml ACD containing 1.6 μM PGI2/10 ml blood; PGI2 was from Sigma, St. Louis, Mo.). Platelet-rich plasma (PRP) is prepared by centrifugation at 160×g for 20 minutes at room temperature. Washed platelets are prepared by centrifuging PRP for 10 minutes at 730×g and resuspending the platelet pellet in CGS (13 mM sodium citrate, 30 mM glucose, 120 mM NaCl; 2 ml CGS/10 ml original blood volume) containing 1U/ml apyrase (grade V, Sigma, St. Louis, Mo.). After incubation at 37° C. for 15 minutes, the platelets are collected by centrifugation at 730×g for 10 minutes and resuspended at a concentration of 3×10^8 platelets/ml in Hepes-Tyrode's buffer (10 mM Hepes, 138 mM NaCl, 5.5 mM glucose, 2.9 mM KCl, 12 mM NaHCO3, pH 7.4) containing 0.1% bovine serum albumin, 1 mM CaCl2 and 1 mM MgCl2. This platelet suspension is kept >45 minutes at 37° C. before use in aggregation assays.
Inhibition of ADP-dependent aggregation is preferably determined in 96-well flat-bottom microtiter plates using a microtiter plate shaker and plate reader similar to the procedure described by Frantantoni et al., Am. J. Clin. Pathol. 94, 613 (1990). All steps are performed at room temperature. The total reaction volume of 0.2 ml/well includes in Hepes-Tyrodes buffer/0.1% BSA: 4.5×10^7 apyrase-washed platelets, 0.5 mg/ml human fibrinogen (American Diagnostica, Inc., Greenwich, Conn.), serial dilutions of test compounds (buffer for control wells) in 0.6% DMSO. After about 5 minutes preincubation at room temperature, ADP is added to a final concentration of 2 μM which induces submaximal aggregation. Buffer is added instead of ADP to one set of control wells (ADP^− control). The OD of the samples is then determined at 490 nm using a microtiter plate reader (Softmax, Molecular Devices, Menlo Park, Calif.) resulting in the 0 minute reading. The plates are then agitated for 5 min on a microtiter plate shaker and the 5 minute reading is obtained in the plate reader. Aggregation is calculated from the decrease of OD at 490 nm at t=5 minutes compared to t=0 minutes and is expressed as % of the decrease in the ADP control samples after correcting for changes in the unaggregated control samples.
The table below provides activity for selected compounds of the invention, evaluated as described above. In the table below, activity in the PRP assay is provided as follows: +++, IC50<10 μM; ++, 10 μM<IC50<30 μM; and +, IC50>30 μM.
As to `O=C(Nc1ccc(-n2c(=O)[nH]c3cc(NCc4ccccc4)ccc3c2=O)cc1)NS(=O)(=O)c1ccc(Cl)s1` [Example 3], the concentration for half-maximal inhibition (IC50) was less than 10 µM.

For `Cc1cc(-n2c(=O)[nH]c3cc(NCc4ccc(F)cc4)ccc3c2=O)ccc1NC(=O)NS(=O)(=O)c1ccc(Cl)s1` [Example 5, 1-(4-(7-(4-fluorobenzylamino)-2,4-dioxo-1,2-dihydroquinazolin-3(4H)-yl)-2-methylphenyl)-3-(5-chlorothiophen-2-ylsulfonyl)urea], the half-maximal inhibitory concentration (IC50) is less than 10 µM.

For `O=C(Nc1ccc(-n2c(=O)[nH]c3cc(NCc4ccc(Cl)cc4)ccc3c2=O)cc1)NS(=O)(=O)c1ccc(Cl)s1` [Example 12], the IC50 was less than 10 µM.

In turn, `Cc1cc(NC(=O)NS(=O)(=O)c2cccs2)ccc1-n1c(=O)[nH]c2cc(NCc3ccc(Cl)cc3)ccc2c1=O` [Example 16] gave a half-inhibitory concentration (IC50) of less than 10 µM.

`O=C(Nc1ccc(-n2c(=O)[nH]c3cc(NCc4ccc(F)cc4)ccc3c2=O)cc1)NS(=O)(=O)c1ccc(Cl)s1` [Example 21] showed an IC50 of less than 10 µM.

Regarding `COc1cccc(CNc2ccc3c(=O)n(-c4ccc(NC(=O)NS(=O)(=O)c5ccc(Cl)s5)cc4)c(=O)[nH]c3c2)c1` [Example 41], the half-inhibitory concentration (IC50) is 10 to 30 µM.

`O=C(Nc1ccc(-n2c(=O)[nH]c3cc(NCc4ccc(Cl)s4)ccc3c2=O)cc1)NS(=O)(=O)c1ccc(Cl)s1` [Example 51] yielded an IC50 of less than 10 µM.

Turning to `Cc1csc(CNc2ccc3c(=O)n(-c4ccc(NC(=O)NS(=O)(=O)c5ccc(Cl)s5)cc4)c(=O)[nH]c3c2)c1` [Example 53], the IC50 was in the range of 10 to 30 µM.

For `O=C(Nc1ccc(-n2c(=O)[nH]c3cc(NCc4ccsc4)ccc3c2=O)cc1)NS(=O)(=O)c1ccc(Cl)s1` [Example 57], the IC50 was less than 10 µM.

As to `O=C(Nc1ccc(-n2c(=O)[nH]c3cc(NCc4cncs4)ccc3c2=O)cc1)NS(=O)(=O)c1ccc(Cl)s1` [Example 61], the IC50 lay in the range of 10 to 30 µM.

`Cc1nc(C)c(CNc2ccc3c(=O)n(-c4ccc(NC(=O)NS(=O)(=O)c5ccc(Cl)s5)cc4)c(=O)[nH]c3c2)s1` [Example 65] displayed an IC50 of more than 30 µM.

On to `O=C(Nc1ccc(-n2c(=O)[nH]c3cc(NCc4ccc(Cl)o4)ccc3c2=O)cc1)NS(=O)(=O)c1ccc(Cl)s1` [Example 72], for which the IC50 lay within 10 to 30 µM.

For the compound `Cn1ccnc1CNc1ccc2c(=O)n(-c3ccc(NC(=O)NS(=O)(=O)c4ccc(Cl)s4)cc3)c(=O)[nH]c2c1` [Example 77], the IC50 is more than 30 µM.

Take `O=C(Nc1ccc(-n2c(=O)[nH]c3cc(NCc4nc5ccccc5s4)ccc3c2=O)cc1)NS(=O)(=O)c1ccc(Cl)s1` [Example 94]: the IC50 was more than 30 µM.

Turning to `Cc1c(F)cccc1CNc1ccc2c(=O)n(-c3ccc(NC(=O)NS(=O)(=O)c4ccc(Cl)s4)cc3)c(=O)[nH]c2c1` [Example 100], the 50% inhibitory concentration (IC50) was less than 10 µM.

As to `O=C(Nc1ccc(-n2c(=O)[nH]c3cc(NCc4ccc(F)cc4F)ccc3c2=O)cc1)NS(=O)(=O)c1ccc(Cl)s1` [Example 102], the concentration for half-maximal inhibition (IC50) was more than 30 µM.

In the case of `O=C(NS(=O)(=O)c1ccc(Cl)s1)c1ccc(-n2c(=O)[nH]c3cc(NCc4ccc(F)cc4)ccc3c2=O)cc1` [Example 106, 4-(7-(4-fluorobenzylamino)-2,4-dioxo-1,2-dihydroquinazolin-3(4H)-yl)-N-(5-chlorothiophen-2-ylsulfonyl)benzamide], the concentration for half-maximal inhibition (IC50) was less than 10 µM.

`O=C(NS(=O)(=O)c1ccc(Cl)s1)c1ccc(-n2c(=O)[nH]c3cc(NCc4ccc(F)cc4)ccc3c2=O)cc1F` [Example 113, 4-(7-(4-fluorobenzylamino)-2,4-dioxo-1,2-dihydroquinazolin-3(4H)-yl)-N-(5-chlorothiophen-2-ylsulfonyl)-2-fluorobenzamide] came in with a 50% inhibitory concentration (IC50) of less than 10 µM.
